# Experimental data reported in patent US20050042674A9, “Common ligand mimics: thiazolidinediones and rhodanines” (priority 2002, published 2005).
# Legend:
# [1] = target: dihydrodipicolinate reductase (DHPR) (Escherichia coli, UniProt P04036); assay: DHPR kinetic assay, spectrophotometric oxidation of NADPH at 340 nm; format: biochemical; details: Cibacron Blue at 2.58 μM; read-out: inhibition of DHPR, positive control
# Method: DHPR was diluted in 10 mM HEPES at a pH of 7.4. DHPS (dihydrodipicolinate synthase) was not diluted and was stored in eppindorf tubes.
# The L-ASA (L-aspartate semialdehyde) solution was prepared in the following manner. […] stock solution of ASA was prepared. 100 μl of the ASA stock solution was mixed with 150 μl of concentrated NaHCO3 and 375 μl of H2O. For use in the assay, 28.8 mM L-ASA was equal to 625 μl of the solution. The L-ASA stock solution was kept at a temperature of −20° C. After dilution, the pH of the 28.8 mM solution was checked and maintained between 1 and 2.
# (§1) The solution for background detection was a 945 μl solution containing 0.1 HEPES (pH 7.8), 1 mM pyruvate, 6 μM NADPH, 40 μM L-ASA, and 7 μl of 1 mg/ml DHPS at 25° C. in the volumes provided above. The sample solution was then mixed and incubated for 10 minutes. Next, 500 nM solutions of the inhibitors and enough DMSO to provide a final DMSO concentration of 5% of the total assay volume were added. The solution was mixed and incubated for an additional 6 minutes.
# In DHPR samples, 5 μl of the diluted DHPR enzyme were added. The sample was mixed for 20 seconds and then the reaction was run for 10 minutes. […] Reading of the samples was continued until 300 seconds. […] The substrate was kept at a level at least 10 times the Km. The final concentration of L-ASA was about 1 mM.
# [2] = target: T1, lactate dehydrogenase (LDH) (Oryctolagus cuniculus, UniProt P13491); assay: LDH kinetic assay, spectrophotometric oxidation of NADH at 340 nm; format: biochemical, Rabbit; details: Cibacron Blue at 10.3 μM; read-out: inhibition of LDH, positive control
# T1 construct: LDH from Rabbit Muscle; from tissue; host or cells: rabbit muscle
# Method: Solutions of 100 μl of the inhibitors in DMSO were prepared to provide a final DMSO concentration of 5% of the total assay volume. […] The reaction was then initiated with 10 μl of LDH from Rabbit Muscle (0.5 μ/ml; 1:2000 dilution of 1.0 mg/ml). […] Reading of the samples was continued until 300 seconds. […] The substrate was kept at a level at least 10 times the Km.
# [3] = target: 1-deoxy-D-xylulose-5-phosphate reductase (DOXPR) (Escherichia coli, UniProt P45568); assay: DOXPR kinetic assay, spectrophotometric oxidation of NADPH at 340 nm; format: biochemical; details: Cibacron Blue at 10.32 μM; read-out: inhibition of DOXPR, positive control
# Method: DOXPR was diluted in 10 mM HEPES at a pH of 7.4.
# Solutions of the inhibitors in DMSO were prepared to provide a final DMSO concentration of 5% of the total assay volume. […] The oxidation reaction was then initiated with 10 μl of DOXP reductoisomerase (10 μg/ml). […] Reading of the samples was continued until 300 seconds. […] The substrate was kept at a level at least 10 times the Km.
# E. coli DHPR = E. coli DHPR (Escherichia coli, UniProt P04036); assay: Screening of bi-ligands on DHPR, kinetic oxidation of NADPH (Example 38); format: biochemical; details: Cibacron Blue at 2.58 μM, read-out: inhibition of DHPR, positive control
# Method: Bi-ligands were produced by the methods of Examples 14 to 18. The bi-ligands were screened for binding to E. coli DHPR. The bi-ligands were screened using a kinetic protocol that spectrophotometrically evaluates oxidation of NADPH.
# Dilution of DHPR was prepared in 10 mM HEPES at a pH of 7.4. DHPS was not diluted and was stored in eppindorf tubes.
# The L-ASA solution was prepared in the following manner. […] stock solution of ASA was prepared. 100 μl of the ASA stock was mixed with 150 μl of concentrated NaHCO3 and 375 μl of H2O. For use in the assay, 28.8 mM L-ASA equal 625 μl of the solution. The L-ASA stock solution was kept at a temperature of −20° C. After dilution, the pH of the 28.8 mM solution was checked and maintained between 1 and 2.
# as §1
# In DHPR samples, 5 μl of the diluted DHPR enzyme were added. […] Reading of the samples was continued until 300 seconds. […]
# Sequence of 1-deoxy-D-xylulose-5-phosphate reductase (DOXPR) (P45568 whole entry): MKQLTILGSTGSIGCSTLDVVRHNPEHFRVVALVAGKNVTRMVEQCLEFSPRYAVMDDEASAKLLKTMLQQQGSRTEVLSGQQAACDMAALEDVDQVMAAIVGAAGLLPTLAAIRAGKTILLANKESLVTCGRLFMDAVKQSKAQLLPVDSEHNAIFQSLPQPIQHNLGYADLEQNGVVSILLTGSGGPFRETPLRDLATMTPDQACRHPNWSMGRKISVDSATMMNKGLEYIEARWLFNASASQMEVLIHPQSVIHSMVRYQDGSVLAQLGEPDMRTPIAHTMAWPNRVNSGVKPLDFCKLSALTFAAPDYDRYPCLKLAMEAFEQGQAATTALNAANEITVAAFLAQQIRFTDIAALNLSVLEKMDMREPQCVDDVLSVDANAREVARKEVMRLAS
# Sequence of dihydrodipicolinate reductase (DHPR) (P04036 whole entry): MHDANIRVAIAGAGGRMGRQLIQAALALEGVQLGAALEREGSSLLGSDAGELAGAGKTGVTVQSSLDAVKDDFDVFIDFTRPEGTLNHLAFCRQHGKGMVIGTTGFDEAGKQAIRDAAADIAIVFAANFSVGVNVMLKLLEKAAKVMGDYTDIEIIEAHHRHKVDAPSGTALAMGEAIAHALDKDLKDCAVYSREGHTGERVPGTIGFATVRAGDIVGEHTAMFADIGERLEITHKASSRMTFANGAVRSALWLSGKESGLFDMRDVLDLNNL
# Sequence of E. coli DHPR (P04036 whole entry): as above
smiles,measurement,setting,value
"Nc1c(S(=O)(=O)O)cc(Nc2ccc(Nc3nc(Cl)nc(Nc4ccccc4S(=O)(=O)O)n3)c(S(=O)(=O)O)c2)c2c1C(=O)c1ccccc1C2=O [Cibacron Blue, reference compound]",inhibition at 2.58 µM,[1],70 to 80%
same,inhibition at 10.3 µM,[2],50 to 70%
same,inhibition at 10.32 µM,[3],70 to 80%
same,inhibition at 2.58 µM,E. coli DHPR,70 to 80%
